The source of these data is patent publication US9241976B2, “Use of HDL-related molecules to treat and prevent proinflammatory conditions” (THE REGENTS OF THE UNIVERSITY OF CALIFORNIA, priority 2011, dated 2016).

Assay [1] deals with CT26 cells. Put plainly: Pulmonary metastasis in vivo: CT26 lung tumors in BALB/c mice. Also noted: species or system mouse. The note with it: CT26 via tail vein. Here is the method:
BALB/c mice were intravenously injected with 2×10^4 CT26 cells in 100 μL of PBS via tail vein injection and the mice were treated with bHDL at 10 mg/kg/day administered SQ for 3 weeks; or treated with bHDL at 100 mg/kg/day administered in a chow diet for 3 weeks. After 3 weeks treatment, the mice were sacrificed; lungs were harvested, weighed and fixed with Bouin's solution (Sigma). Tumor nodules on the lung surface were counted.
BALB/c mice were intravenously injected with 2×10^4 CT26 cells in […] of PBS via tail vein injection and the mice were treated with L-4F or sc-4F at 10 mg/kg/d administered subcutaneously for 3 weeks, or treated with sc-4F or L-4F or G* peptide at 100 mg/kg/d administered in a chow diet for 3 weeks. After 3 weeks treatment, the mice were sacrificed; lungs were harvested, weighed, and fixed with Bouin solution (Sigma). Tumor nodules on the lung surface were counted.

Assay [2] has as its system CT26 cells. Kind of assay: Tumor-load study: CT26 flank tumors in BALB/c mice. Type of assay: in vivo, mouse. As to the method:
6-week-old BALB/c female mice were given a 100 μL subcutaneous injection of 1×10^6 CT26 cells prepared as a single cell suspension in PBS, and the mice were treated with bHDLor BHDLat 10 mg/kg administered subcutaneously (SQ) daily for 15 days. The mice were sacrificed and tumor weights were measured.
6-week-old BALB/c female mice were given a 100 μl subcutaneous injection of 1×10^6 CT26 cells prepared as a single cell suspension in PBS, treated with peptide at 10 mg/kg by SQ daily for 15 days.
The mice were killed and tumor weights were measured. The tumor volumes were measured using the formula V=½ (L×W^2).
Six-week-old BALB/c female mice were given a […] subcutaneous injection of 1×10^6 CT26 cells prepared as a single cell suspension in PBS, and the mice were treated with sc-4F or L-4F at 10 mg/kg administered subcutaneously daily for 15 days. The mice were sacrificed and tumor weights were measured.

The next assay has as its system cyclin D1 and cyclin A. Kind of assay: Western blot of cyclin D1 and cyclin A in CT26 cells. Type of assay: cell-based, mouse. As to the method: Total cell proteins were collected after treatment in cell lysis buffer containing 0.1 mol/L NaCl, 5 mmol/L EDTA, 50 mmol/L sodium orthovanadate, 1% Triton X-100, and protease inhibitor tablet in 50 mmol/L Tris buffer (pH 7.5). Twenty micrograms of total proteins were separated by SDS-PAGE and transferred onto nitrocellulose membrane and followed by incubation with primary antibody at 4° C. in 5% skim milk and 0.1% Tween-20. Anti-cyclin D1 and anti-cyclin A rabbit polyclonal antibodies were used at 1:1,000 dilution, and anti-b-actin polyclonal antibody was used at 1:2,000 dilution.
For orientation: Immunoblotting shows a protein as a band on a membrane.

Assay [3] relates to VEGF, glucose transporter 1, and aldolase-A. Kind of assay: HIF-1α target gene mRNA, real-time RT-PCR in OV2008 cells. Type of assay: cell-based, human. To be noted: 10 μg/ml pretreatment 1 h. Here is the method: Total RNA was extracted from cells by using a PureLink RNA Mini Kit (Invitrogen). The quantity and quality of RNA were assessed by using a SmartSpec 3000 Spectrophotometer (Bio-Rad Laboratories, Hercules, Calif.). cDNA was synthesized by using the High Capacity cDNA Reverse Transcription Kit (Applied Biosystems, Foster City, Calif.) according to the manufacturer's instructions. PCRs were performed by using the CFX96 realtime PCR system (Applied Biosystems). The cycling conditions were as follows: 3 min at 95° C. followed by 40 cycles of 95° C., 10 s; 60° C., 10 s; 72° C., 30 s followed by a final extension at 72° C. for 10 min. Each 25-μl reaction contained 0.4 μg of cDNA, 12.5 μl of SYBR Green qPCR SuperMix (Bio-Rad Laboratories), and 250 nM forward and reverse primers in nuclease-free water. […]
For orientation: Real-time PCR tracks product formation cycle by cycle.

The subject of assay [4] is CT26 cells. Kind of assay: Cell-cycle analysis of CT26 cells by flow cytometry. The note with it: 48 hours. The format is cell-based, mouse. Also noted: dose or concentration left out as unconfirmed. Here is the method:
CT26 cells were cultured in 6-well plates overnight and then serum starved for 48 hours. […] Cells were collected, washed with PBS, and fixed with 70% ice-cold methanol overnight at 4° C. The fixed cells were collected by centrifugation, washed with PBS, and resuspended in 0.3 mL of PBS containing […] RNaseA and […] propidium iodide, and subjected to flow cytometric cell-cycle analysis by FACScan from BD Biosciences.
(In general: Flow cytometry measures light scatter and fluorescence of single cells or particles in a stream.)

Assay [5] concerns CT26 cells. Kind of assay: CT26 cell viability, MTS assay. The note with it: Example 6; MTS assay, within 48 hours of treatment.
Protocol: CT26 cell line derived from N-nitroso-N-methyl urethane-induced mouse colon carcinoma of BALB/c origin was purchased from the American Type Culture Collection (ATCC). CT26 cells (2,000 cells per well) were first cultured in complete medium in 96-well culture plates, and 24 hours later the medium was replaced with serum free medium. Following an overnight incubation, the cells were either treated with vehicle (control), or treated with 10 μg/mL of either bHDL. The bHDL were dissolved in H2O. Cells were incubated for an additional 48 hours and assayed for viability using the MTS assays kit (Promega) according to the manufacturer's protocol.
CT26 cell line derived from N-nitroso-N-methyl urethane-induced mouse colon carcinoma of BALB/c origin was purchased from the American Type Culture Collection. CT26 cells (2,000 cells per well) were first cultured in complete medium in 96-well culture plates, and 24 hours later the medium was replaced with serum-free medium. Following an overnight incubation, the cells were either treated with vehicle (control) or treated with 10 mg/mL of either L-4F or G* peptide. The peptides were dissolved in H2O. Cells were incubated for an additional 48 hours and assayed for viability using the MTS assay kit (Promega) according to the manufacturer's protocol.
Assay [6] has as its system cis-platinum-resistant human ovarian cancer cells. To be noted: reference (17); cited from earlier work.
[7] abbreviates: 10 mg/kg/d subcutaneously for 3 weeks.
The mark [8] stands for this setting: 100 mg/kg/d in chow diet for 3 weeks.
The mark [9] stands for this setting: Example 3, 10 mg/kg subcutaneous daily for 15 days.

Take “Ac-DWFKAFYDKVAEKFKEAF-NH2 [L-4F, Ac-D-W-F-K-A-F-Y-D-K-V-A-E-K-F-K-E-A-F-NH2]”: in the assay on CT26 cells [1] (setting [7]), the lung weights came to 225 mg and the “tumor numbers counted on the lung surface” value is 18. In the assay on CT26 cells [1] (setting [8]), the lung weights is recorded as 238 mg and the “tumor numbers on the lung surface” value is 12. Besides, in the assay with CT26 cells [2] (setting [9]), the flank tumor volume stood at 313 mm^3 and the flank tumor weight is given as 179 mg. In the assay with CT26 cells [2] (Example 5, 10 mg/kg subcutaneously daily for 15 days), the flank tumor weights turned out to be 389 mg. Moreover, the “expression of cyclin D1 and cyclin A” value in the assay on cyclin D1 and cyclin A was “significantly lower”. The “CoCl2- and insulin-induced increase in mRNA levels of HIF-1α target genes” value in assay [3] is “abrogated”. The cell-cycle profile result with CT26 cells [4] was “induced an increase in G0/G1 phase and arrest in S phase”. Further, in the assay on CT26 cells [5], the “CT26 cell viability vs vehicle-treated controls” value is “reduced cell viability”. Further, the viability and proliferation result in assay [6] is “reduced”.
